Source: patent US11952388B2, “Crystal form of tri-cycle compound and application thereof” (FUJIAN AKEYLINK BIOTECHNOLOGY CO., LTD., priority 2018, dated 2024)

Test: Pre-stability (solid stability) test of crystal form B, HPLC analysis
Format: physicochemical
Experimental: [table] Note: • X indicates testing items, including: XRPD, content and related substances, day 0 samples were stored at −20° C.; • ICH indicate the illumination condition that guides the placement of the samples, i.e., illumination (total illuminance=1.2×10^6 Lux·hr/near ultraviolet=200 w·hr/m^2, with the lid open). About 10 mg of the crystal form B of the compound represented by formula (I) was weighed and placed at the bottom of a 40 mL glass bottle, and spread into a thin layer. The bottleneck was wrapped with aluminum foil paper (except for illuminated samples), and some small holes were punctured on the aluminum foil paper to ensure that the samples can fully contact the ambient air. The illuminated sample was placed at the bottom of a 40 mL glass bottle, which was placed vertically in the illuminated box with the lid open; the control sample was placed at the bottom of glass vials, which was placed vertically with the lid open, and wrapped with tin foil to protect it from light. Under each condition, 2 aliquots of sample were weighed in parallel at each time point, and an additional appropriate amount of sample (not weighed) was taken for XRPD detection. The prepared samples were placed under various conditions shown in the following Table, and samples were analyzed respectively by HPLC after reaching the time points. 1.1 Preparation of Diluent and Mobile Phase • Diluent: Acetonitrile:Water (2:1) • Example: 1000 mL of acetonitrile and 500 mL of water were mixed evenly, ultrasonically degassed, and cooled to room temperature. • Mobile phase A: 0.1% trifluoroacetic acid aqueous solution • Example: 2.0 mL of trifluoroacetic acid was added to 2 L of water and mixed well, ultrasonically degassed, and cooled to room temperature. • Mobile phase B: 100% acetonitrile The crystal form B of compound represented by formula (I) was used as control. The crystal form B of compound represented by formula (I) was placed in a glass bottle, then 5 mL of diluent was added into the bottle to a concentration of 1 mg/mL, and the solution was mix well ultrasonically. And then the mixture was diluted 5 times to obtain the control sample solution STD1. STD1 was diluted 1, 2, 4, 20 and 200 times to prepare a 1% control solution. Diluent was added to each test sample to a concentration of 10 mL, then the samples were ultrasonically dissolved. HPLC test was performed after cooling to room temperature. Meanwhile, the sample solution was diluted 5 times and mixed well, and then tested by HPLC. [table]

[1] = Illumination of Control (light-proof)

SMILES: Cc1cc2n(c1)S(=O)(=O)c1ccc(C(=O)NCC[C@H]3COCCO3)cc1NC2=O
- Assay (content of the sample) (40° C., 75% humidity, 1 month): 100.6%
- TRS (sum of impurities) (40° C., 75% humidity, 1 month): 1.20%
- impurity at relative retention time 0.87 (40° C., 75% humidity, 1 month): 0.34%
- impurity at relative retention time 1.07 (40° C., 75% humidity, 1 month): 0.07%
- impurity at relative retention time 1.12 (40° C., 75% humidity, 1 month): 0.65%
- impurity at relative retention time 1.14 (40° C., 75% humidity, 1 month): 0.13%
- Assay (content of the sample) (40° C., 75% humidity, 10 days): 100.7%
- TRS (sum of impurities) (40° C., 75% humidity, 10 days): 1.19%
- impurity at relative retention time 0.87 (40° C., 75% humidity, 10 days): 0.34%
- impurity at relative retention time 1.07 (40° C., 75% humidity, 10 days): 0.06%
- impurity at relative retention time 1.12 (40° C., 75% humidity, 10 days): 0.65%
- impurity at relative retention time 1.14 (40° C., 75% humidity, 10 days): 0.13%
- Assay (content of the sample) (60° C., 75% humidity, 1 month): 100.3%
- TRS (sum of impurities) (60° C., 75% humidity, 1 month): 1.21%
- impurity at relative retention time 0.87 (60° C., 75% humidity, 1 month): 0.35%
- impurity at relative retention time 1.07 (60° C., 75% humidity, 1 month): 0.07%
- impurity at relative retention time 1.12 (60° C., 75% humidity, 1 month): 0.65%
- impurity at relative retention time 1.14 (60° C., 75% humidity, 1 month): 0.13%
- Assay (content of the sample) (60° C., 75% humidity, 10 days): 101.4%
- TRS (sum of impurities) (60° C., 75% humidity, 10 days): 1.20%
- impurity at relative retention time 0.87 (60° C., 75% humidity, 10 days): 0.35%
- impurity at relative retention time 1.07 (60° C., 75% humidity, 10 days): 0.07%
- impurity at relative retention time 1.12 (60° C., 75% humidity, 10 days): 0.65%
- impurity at relative retention time 1.14 (60° C., 75% humidity, 10 days): 0.13%
- Assay (content of the sample) (60° C., 5 days): 100.1%
- TRS (sum of impurities) (60° C., 5 days): 1.19%
- impurity at relative retention time 0.87 (60° C., 5 days): 0.35%
- impurity at relative retention time 1.07 (60° C., 5 days): 0.07%
- impurity at relative retention time 1.12 (60° C., 5 days): 0.65%
- impurity at relative retention time 1.14 (60° C., 5 days): 0.13%
- Assay (content of the sample) (60° C., 10 days): 100.1%
- TRS (sum of impurities) (60° C., 10 days): 1.21%
- impurity at relative retention time 0.87 (60° C., 10 days): 0.36%
- impurity at relative retention time 1.07 (60° C., 10 days): 0.07%
- impurity at relative retention time 1.12 (60° C., 10 days): 0.65%
- impurity at relative retention time 1.14 (60° C., 10 days): 0.13%
- Assay (content of the sample) (92.5% humidity, 5 days): 100.0%
- TRS (sum of impurities) (92.5% humidity, 5 days): 1.21%
- impurity at relative retention time 0.87 (92.5% humidity, 5 days): 0.36%
- impurity at relative retention time 1.07 (92.5% humidity, 5 days): 0.07%
- impurity at relative retention time 1.12 (92.5% humidity, 5 days): 0.65%
- impurity at relative retention time 1.14 (92.5% humidity, 5 days): 0.13%
- Assay (content of the sample) (92.5% humidity, 10 days): 100.7%
- TRS (sum of impurities) (92.5% humidity, 10 days): 1.20%
- impurity at relative retention time 0.87 (92.5% humidity, 10 days): 0.35%
- impurity at relative retention time 1.07 (92.5% humidity, 10 days): 0.06%
- impurity at relative retention time 1.12 (92.5% humidity, 10 days): 0.65%
- impurity at relative retention time 1.14 (92.5% humidity, 10 days): 0.13%
- Assay (content of the sample) (Day 0): 100.5%
- TRS (sum of impurities) (Day 0): 1.20%
- impurity at relative retention time 0.87 (Day 0): 0.35%
- impurity at relative retention time 1.07 (Day 0): 0.06%
- impurity at relative retention time 1.12 (Day 0): 0.65%
- impurity at relative retention time 1.14 (Day 0): 0.14%
- Assay (content of the sample) (Illumination (1 ICH, lid open)): 83.5%
- TRS (sum of impurities) (Illumination (1 ICH, lid open)): 9.50%
- impurity at relative retention time 0.16 (Illumination (1 ICH, lid open)): 0.07%
- impurity at relative retention time 0.19 (Illumination (1 ICH, lid open)): 0.32%
- impurity at relative retention time 0.24 (Illumination (1 ICH, lid open)): 0.12%
- impurity at relative retention time 0.26 (Illumination (1 ICH, lid open)): 0.12%
- impurity at relative retention time 0.31 (Illumination (1 ICH, lid open)): 0.12%
- impurity at relative retention time 0.36 (Illumination (1 ICH, lid open)): 0.19%
- impurity at relative retention time 0.38 (Illumination (1 ICH, lid open)): 0.08%
- impurity at relative retention time 0.60 (Illumination (1 ICH, lid open)): 0.28%
- impurity at relative retention time 0.62 (Illumination (1 ICH, lid open)): 0.12%
- impurity at relative retention time 0.70 (Illumination (1 ICH, lid open)): 0.10%
- impurity at relative retention time 0.78 (Illumination (1 ICH, lid open)): 0.16%
- impurity at relative retention time 0.79 (Illumination (1 ICH, lid open)): 0.24%
- impurity at relative retention time 0.82 (Illumination (1 ICH, lid open)): 2.26%
- impurity at relative retention time 0.87 (Illumination (1 ICH, lid open)): 4.49%
- impurity at relative retention time 0.89 (Illumination (1 ICH, lid open)): 0.07%
- impurity at relative retention time 0.90 (Illumination (1 ICH, lid open)): 0.07%
- impurity at relative retention time 1.07 (Illumination (1 ICH, lid open)): <0.05%
- impurity at relative retention time 1.12 (Illumination (1 ICH, lid open)): 0.52%
- impurity at relative retention time 1.14 (Illumination (1 ICH, lid open)): 0.12%
- impurity at relative retention time 1.42 (Illumination (1 ICH, lid open)): 0.06%
- Assay (content of the sample) [1]: 100.3%
- TRS (sum of impurities) [1]: 1.18%
- impurity at relative retention time 0.87 [1]: 0.34%
- impurity at relative retention time 1.07 [1]: 0.07%
- impurity at relative retention time 1.12 [1]: 0.64%
- impurity at relative retention time 1.14 [1]: 0.13%
- solid stability (conclusion in words) (high temperature and high humidity conditions): stable under high temperature and high humidity conditions
